The experiment has as its target T1, β-catenin/Tcf protein-protein interaction (Homo sapiens, UniProt P35222).
T1 construct: Wild-type β-catenin (residues 138-781) were cloned into a pET-28b vector; 6×histidine (C); made in house; host or cells: E. coli BL21 DE3
T1 sequence (P35222 138-781): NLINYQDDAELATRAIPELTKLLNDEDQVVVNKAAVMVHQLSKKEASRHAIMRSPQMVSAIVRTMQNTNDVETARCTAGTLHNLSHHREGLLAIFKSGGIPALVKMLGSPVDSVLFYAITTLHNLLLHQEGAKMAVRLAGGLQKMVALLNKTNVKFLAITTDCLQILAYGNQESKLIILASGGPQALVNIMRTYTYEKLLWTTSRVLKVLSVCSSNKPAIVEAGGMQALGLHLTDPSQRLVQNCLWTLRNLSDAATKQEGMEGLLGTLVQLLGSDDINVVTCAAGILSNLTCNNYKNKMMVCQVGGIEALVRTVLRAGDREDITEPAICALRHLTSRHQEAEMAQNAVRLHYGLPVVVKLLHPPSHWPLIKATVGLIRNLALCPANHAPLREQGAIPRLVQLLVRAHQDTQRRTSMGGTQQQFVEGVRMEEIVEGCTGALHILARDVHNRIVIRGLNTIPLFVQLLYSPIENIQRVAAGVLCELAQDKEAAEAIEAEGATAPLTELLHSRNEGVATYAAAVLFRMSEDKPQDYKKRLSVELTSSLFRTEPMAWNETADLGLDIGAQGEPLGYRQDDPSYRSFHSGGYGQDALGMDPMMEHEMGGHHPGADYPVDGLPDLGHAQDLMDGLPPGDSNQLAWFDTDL
Briefly: FP competitive inhibition assay. The format is binding. On the procedure: Protein Expression and Purification. Wild-type β-catenin (residues 138-781) were cloned into a pET-28b vector carrying a C-terminal 6×histidine (Novagen) and transformed into E. coli BL21 DE3 (Novagen). Cells were cultured in LB medium with 30 μg/mL kanamycin until the OD600 was approximately 0.8, and then protein expression was induced with 400 μM of IPTG at 20° C. overnight. Cells were lysed by sonication. The proteins were purified by Ni-NTA affinity chromatography (30210, Qiagen) and dialyzed against a buffer containing 20 mM of Tris (pH 8.8), 100 mM NaCl, 10% glycerol, and 3 mM DTT. The purity of β-catenin was set to >95% as determined by SDS-PAGE gel analysis. Native non-denaturing gel electrophoresis experiment and the thermal-shift assay on an iCycler iQ Real Time Detection System (Bio-Rad) were performed for each purified protein. In the thermal shift assay, protein unfolding was evaluated through measuring the fluorescence changes of fluorescent dye Sypro Orange with purified β-catenin proteins. A temperature increment of 1° C./min was applied to monitor protein stability and detect protein aggregation. CD spectra were measured on a J-815 spectropolarimeter (Jasco). All spectra were recorded using a 1 mm path-length quartz cell. The CD spectra were averaged over three scans, and the wavelength was scanned from 260 to 190 nm in step of 1 nm. All spectra were recorded at room temperature, and the baseline was corrected by subtracting the CD spectra of a blank control containing all of the substances except protein. Samples were prepared at a concentration around 1-5 μM in a buffer of 10 mM potassium phosphate and 100 mM potassium fluoride at pH 7.0 to ensure that the transmission of light through the sample was not restricted. All proteins were stable, and no aggregation was observed under storage or assay conditions. Proteins were aliquoted and stored at −80° C. C-terminally fluorescein-labeled human Tcf4 (residues 7-51) was synthesized and HPLC purified with purity >95%. The structures were validated by LC/MS (liquid chromatography/mass spectrometry).
FP Assays. The procedures for the FP competitive inhibition assays have been described previously (Zhang, M.; Huang, Z.; Yu, B.; Ji, H. New homogeneous high-throughput assays for inhibitors of β-catenin/Tcf protein-protein interactions Anal. Biochem. 2012, 424, 57-63; Zhang, M.; Catrow, J. L.; Ji, H. High-throughput selectivity assays for small-molecule inhibitors of β-catenin/T-cell factor protein-protein interactions. ACS Med. Chem. Lett. 2013, 4, 306-311). Briefly, all of the tested compounds were prepared as 10 mM DMSO stocks. In the primary screen, the concentrations of the compounds and DMSO were set to 50 μM and 1% (v/v). Only the compounds which FP signal decreases were greater than 50% in the single-point β-catenin/Tcf assay were evaluated by counter screen. […] In the FP competitive inhibition assay, 10 nM human β-catenin and 2.5 nM of C-terminally fluorescein-labeled human Tcf4 were incubated in an assay buffer of 137 mM NaCl, 2.7 mM KCl, 10 mM Na2HPO4, 2 mM KH2PO4, 100 μg/mL of bovine γ-globulin, and 0.01% Triton-X100 for 15 min at 4° C. Bovine γ-globulin and Triton-X100 were included in the assay buffer to decrease the likelihood of compound acting by aggregate formation. Different concentrations of the tested compounds in the assay buffer were added to each test plate to make a final volume of 100 μL. Each assay plate was covered black and gently mixed on an orbital shaker at 4° C. for 1.5 h to reach equilibrium before the polarization values were read. The IC50 value was determined by nonlinear least-square analysis of GraphPad Prism 5.0. The Ki values were derived (Nikolovska-Coleska, Z.; Wang, R.; Fang, X.; Pan, H.; Tomita, Y.; Li, P.; Roller, P. P.; Krajewski, K.; Saito, N. G.; Stuckey, J. A.; Wang, S. Development and optimization of a binding assay for the XIAP BIR3 domain using fluorescence polarization. Anal. Biochem. 2004, 332, 261-273). […]

Setting [1] is: Assay 1, mean ± SD (n = 3), read-out: Ki ± SD, Assay 1.
Where [2] appears, read: Assay 2, mean ± SD (n = 3), read-out: Ki ± SD, Assay 2.
Where [3] appears, read: Assay 3, mean ± SD (n = 3), read-out: Ki ± SD, Assay 3.
Where [4] appears, read: Assay 4, mean ± SD (n = 3), read-out: Ki ± SD, Assay 4.

Like-named read-outs stand apart in the source and are kept apart here.

What is called Ki is the dissociation constant of the complex between target and ligand, obtained from inhibition or displacement. `O=C(O)c1ccc2c(c1)c(CCc1ccccc1)c(CCc1nc3ccccc3s1)n2CCc1nn[nH]n1` [Compound 25, 1-(2-(2H-tetrazol-5-yl)ethyl)-2-(2-(benzo[d]thiazol-2-yl)ethyl)-3-phenethyl-1H-indole-5-carboxylic acid]: the Ki is, setting by setting: under setting [1], 11 ± 3.9 µM; under setting [2], 4.1 ± 0.88 µM.

Regarding `O=C(O)c1ccc2c(c1)c(CCc1ccc(F)cc1)c(CCc1nc3ccccc3s1)n2CCc1nn[nH]n1` [Compound 26, 1-(2-(2H-tetrazol-5-yl)ethyl)-2-(2-(benzo[d]thiazol-2-yl)ethyl)-3-(4-fluorophenethyl)-1H-indole-5-carboxylic acid], the Ki is, setting by setting: under setting [1], 6.7 ± 1.1 µM; under setting [2], 2.7 ± 0.54 µM.

For the compound `Cc1ccc(CCc2c(CCc3nc4ccccc4s3)n(CCc3nn[nH]n3)c3ccc(C(=O)O)cc23)cc1` [Compound 28, 1-(2-(2H-tetrazol-5-yl)ethyl)-2-(2-(benzo[d]thiazol-2-yl)ethyl)-3-(4-methylphenethyl)-1H-indole-5-carboxylic acid], the Ki under setting [1] was found to be 2.3 ± 0.54 µM and the Ki under setting [2] worked out at 0.87 ± 0.33 µM.

For `O=C(O)c1ccc2c(c1)c(CCc1ccc(Cl)cc1)c(CCc1nc3ccccc3[nH]1)n2CCc1nn[nH]n1` [Compound 29, 2-(2-(1H-benzo[d]imidazol-2-yl)ethyl)-1-(2-(2H-tetrazol-5-yl)ethyl)-3-(4-chlorophenethyl)-1H-indole-5-carboxylic acid], the Ki is 11 ± 1.8 µM under setting [1] and 5.2 ± 1.7 µM under setting [2].

For the compound `O=C(O)c1ccc2c(c1)c(CCc1ccc(Cl)cc1)c(CCc1nc3cc(Cl)ccc3s1)n2CCc1nn[nH]n1` [Compound 30, 1-(2-(2H-tetrazol-5-yl)ethyl)-2-(2-(5-chlorobenzo[d]thiazol-2-yl)ethyl)-3-(4-chlorophenethyl)-1H-indole-5-carboxylic acid], the Ki runs as follows: under setting [1], 1.1 ± 0.27 µM; under setting [2], 1.6 ± 0.63 µM; under setting [3], 2.5 ± 1.5 µM.

As to `COc1ccc2sc(CCc3c(CCc4ccc(Cl)cc4)c4cc(C(=O)O)ccc4n3CCc3nn[nH]n3)nc2c1` [Compound 31, 1-(2-(2H-tetrazol-5-yl)ethyl)-3-(4-chlorophenethyl)-2-(2-(5-methoxybenzo[d]thiazol-2-yl)ethyl)-1H-indole-5-carboxylic acid], the Ki turned out to be 2 ± 0.4 µM under setting [1], 4.1 ± 0.6 µM under setting [2], 4.1 ± 1.2 µM under setting [3] and 1.6 ± 0.12 µM under setting [4].

`COCCOc1ccc2sc(CCc3c(CCc4ccc(Cl)cc4)c4cc(C(=O)O)ccc4n3CCc3nn[nH]n3)nc2c1` [Compound 32, 1-(2-(2H-tetrazol-5-yl)ethyl)-3-(4-chlorophenethyl)-2-(2-(5-(2-methoxyethoxy)benzo [d]thiazol-2-yl)ethyl)-1H-indole-5-carboxylic acid]: the Ki was found to be 6.1 ± 1.5 µM under setting [1], 7.5 ± 1.9 µM under setting [2] and 3.7 ± 1.3 µM under setting [3].

Turning to `O=C(O)c1ccc2c(c1)c(CCc1ccc3ccccc3c1)c(CCc1nc3ccccc3s1)n2CCc1nn[nH]n1` [Compound 36, 1-(2-(2H-tetrazol-5-yl)ethyl)-2-(2-(benzo[d]thiazol-2-yl)ethyl)-3-(2-(naphthalen-2-yl)ethyl)-1H-indole-5-carboxylic acid], under setting [1], the Ki is 0.61 ± 0.065 µM.

Regarding `O=C(O)CCn1c(CCc2nc3ccccc3s2)c(CCc2ccccc2)c2cc(C(=O)O)ccc21` [Compound 37, 2-(2-(Benzo[d]thiazol-2-yl)ethyl)-1-(2-carboxyethyl)-3-phenethyl-1H-indole-5 carboxylic acid], the Ki under setting [1] came to 28 ± 6.8 µM.

In the case of `O=C(O)CCn1c(CCc2nc3ccccc3s2)c(CCc2ccc(F)cc2)c2cc(C(=O)O)ccc21` [Compound 38, 2-(2-(benzo[d]thiazol-2-yl)ethyl)-1-(2-carboxyethyl)-3-(4-fluorophenethyl)-1H-indole-5-carboxylic acid], the inhibition constant Ki under setting [1] was 19 ± 2.8 µM.

On to `O=C(O)CCn1c(CCc2nc3ccccc3s2)c(CCc2ccc(Cl)cc2)c2cc(C(=O)O)ccc21` [Compound 39, 2-(2-(benzo[d]thiazol-2-yl)ethyl)-1-(2-carboxyethyl)-3-(4-chlorophenethyl)-1H-indole-5-carboxylic acid], for which the Ki by setting is: under setting [1], 7.9 ± 1.5 µM; under setting [2], 1.4 ± 0.45 µM.

As for `Cc1ccc(CCc2c(CCc3nc4ccccc4s3)n(CCC(=O)O)c3ccc(C(=O)O)cc23)cc1` [Compound 40, 2-(2-(benzo[d]thiazol-2-yl)ethyl)-1-(2-carboxyethyl)-3-(4-methylphenethyl)-1H-indole-5-carboxylic acid], the Ki under setting [1] stood at 5.8 ± 1.3 µM.

As for `O=C(O)CCn1c(CCc2nc3ccccc3[nH]2)c(CCc2ccc(Cl)cc2)c2cc(C(=O)O)ccc21` [Compound 41, 2-(2-(1H-benzo[d]imidazol-2-yl)ethyl)-1-(2-carboxyethyl)-3-(4-chlorophenethyl)-1H-indole-5-carboxylic acid], the Ki under setting [1] amounted to 36 ± 9.5 µM and the Ki under setting [2] was determined as 10 ± 2.2 µM.

Consider `Cc1ccc(CCc2c(CCc3nc4ccccc4[nH]3)n(CCC(=O)O)c3ccc(C(=O)O)cc23)cc1` [Compound 42, 2-(2-(1H-benzo[d]imidazol-2-yl)ethyl)-1-(2-carboxyethyl)-3-(4-methylphenethyl)-1H-indole-5-carboxylic acid], for which the inhibition constant Ki by setting is: under setting [1], 29 ± 3.3 µM; under setting [2], 2 ± 1.2 µM.

`COCCOc1ccc2sc(CCc3c(CCc4ccc(Cl)cc4)c4cc(C(=O)NCc5ccc(Cl)cc5)ccc4n3CCc3nn[nH]n3)nc2c1` [Compound 46, 1-(2-(2H-tetrazol-5-yl)ethyl)-N-(4-chlorobenzyl)-3-(4-chlorophenethyl)-2-(2-(5-(2-methoxy-ethoxy)benzo[d]thiazol-2-yl)ethyl)-1H-indole-5-carboxamide]: the Ki under setting [1] turned out to be 1.3 ± 0.4 µM.

Consider `COc1ccc2sc(CCc3c(CCc4ccc(Cl)cc4)c4cc(C(=O)Nc5ccc(Cl)cc5)ccc4n3CCc3nn[nH]n3)nc2c1` [Compound 47, 1-(2-(2H-tetrazol-5-yl)ethyl)-3-(4-chlorophenethyl)-N-(4-chlorophenyl)-2-(2-(5-methoxybenzo[d]thiazol-2-yl)ethyl)-1H-indole-5-carboxamide], for which the Ki under setting [1] was 7.4 ± 1.4 µM, the Ki under setting [2] was found to be 10 ± 0.66 µM, the Ki under setting [3] turned out to be 2.1 ± 0.26 µM and the Ki under setting [4] is 2.1 ± 0.27 µM.
